Values quoted from earlier work in patent publication US6297239A, “Inhibitors of prenyl-protein transferase” (Merck & Co., Inc., priority 1998, dated 2001).

System: farnesyl-protein transferase
Conditions: via inhibition of HMG-CoA reductase

| SMILES | indirect inhibition of farnesyl-protein transferase in vivo |
| --- | --- |
| CC[C@H](C)C(=O)O[C@H]1CCC=C2C=C[C@H](C)[C@H](CC[C@@H]3C[C@@H](O)CC(=O)O3)[C@H]21 [compactin] | Indirect inhibition |
| CC[C@H](C)C(=O)O[C@H]1C[C@@H](C)C=C2C=C[C@H](C)[C@H](CC[C@@H]3C[C@@H](O)CC(=O)O3)[C@H]21 [lovastatin] | Indirect inhibition |
